# Reference: a melting point compilation (Tetko et al.)
row,Compound,melting point
1,O=C1NC(=O)C(=Cc2ccc(Cl)cc2)C(=O)N1,243 °C
2,O=C1CC2(CCCC2)CC(=O)O1,64 to 66 °C
3,N#CC1(c2ccc(F)cc2Cl)CCCCC1,58 to 65 °C
4,CCC[C@H]1CCC[C@H]1C (relative stereo),-104 °C
5,O=C(Nc1c(Cl)cc(Cl)cc1Cl)C(F)(F)C(F)(F)C(F)(F)C(F)(F)C(F)(F)C(F)(F)C(F)(F)C(F)(F)F,115 °C
6,O=[N+]([O-])c1ccc2ccccc2c1,79 °C
7,NS(=O)(=O)c1cc(C(=O)O)c(Cl)cc1Cl,230 to 234 °C
8,CCCCCCCCCCCCCCCCCCCCCCCCCCCCCC(=O)O,93.6 °C
9,Oc1cc(Br)cc(Br)c1,81 °C
10,CC(=O)OCC(=O)O,67.5 °C
11,CSC(=CC(=C(C#N)C#N)c1ccc(Br)cc1)SC,138 to 142 °C
12,C[Si](C)(C)N=C=S,-32.8 °C
13,Nc1c(F)cc(Br)cc1F,67 to 68 °C
14,BrC(Br)(Br)c1ccc2cc3ccc(C(Br)(Br)Br)nc3cc2n1,190 °C
15,CC(=O)N1CCN(c2ccc(O)cc2)CC1,183 °C
16,COc1cc2c(c3oc(=O)c4c(c13)CCC4=O)C1C=COC1O2 (stereo not drawn),268 to 269 °C
17,C1CN(CCN2CCOCC2)CCO1,75 °C
18,OCC1(CO)CC=CCC1,88.5 °C
19,CCc1c(C)ccc2c1CCC1C2CCC2CC(O)CCC21C (stereo not drawn),172 °C
20,OCc1nccs1,62 to 64 °C
21,Cc1cnc(Cl)nc1Cl,26 °C
22,FC(F)(F)c1nn(CN2CCN(Cn3nc(C(F)(F)F)n(N=Cc4ccc5c(c4)OCO5)c3=S)CC2)c(=S)n1N=Cc1ccc2c(c1)OCO2,156 °C
23,C=C(C)CCCCCCCCCCCCCCC,9 °C

row,Compound,melting point
1,O=[N+]([O-])c1cc(F)ccc1Cl,38 °C
2,CCc1c(C)cc(C)cc1C,-16 °C
3,CC(C)c1cc(Br)c(N)c(Br)c1,46 °C
4,CCOC(=O)C1CSCCN1 (stereo not drawn),118 to 121 °C
5,Fc1ccc(C(=S)N2CCCCC2)cc1,77 °C
6,COC1=C(Br)C(=O)C2(C)CCC1C2(C)C (stereo not drawn),104 °C
7,CC(Cl)OC(=O)Cl (stereo not drawn),-65 °C
8,O=C(O)CCCCCCCCCCO,65.5 °C
9,CC(C)(C)c1cc(N)cc(C(C)(C)C)c1,56 °C
10,O=C(CBr)c1cccc(Br)c1,51 to 52 °C
11,Cc1cc(C)n2nc(N)c(/N=N/c3cc(Cl)ccc3Cl)c2n1,279 °C
12,O=C1C(=O)c2c3ccccc3cc3cccc1c23,268 to 270 °C
13,Cc1cc(O)nc(C(C)C)n1,173 °C
14,O=C1NC(=O)C(=NNc2ccc(Br)cc2)C(=O)N1,295 °C
15,COC12C(COC(N)=O)C3=C(C(=O)C(C)=C(Nc4cnccc4N)C3=O)N1CC1NC12 (stereo not drawn),159 °C
16,Clc1cn2ccsc2n1,85 °C
17,C#CC1(O)CCC2(C)C(CCC3C4CCC(=O)C4(C)CCC32)C1 (stereo not drawn),237 to 238 °C
18,ON=C1CCCc2nonc21,166 to 168 °C
19,CC12CCCCC1(C)C1CCC3(C)C(O)CCC3(C)C1CC2 (stereo not drawn),167 °C
20,O=C(O)C=Cc1cccc(C(Br)=C(Br)C(=O)O)c1,214 °C
21,CCCCCCCCCCCCCCCCCC[Si](OC)(OC)OC,15 °C
22,CCN(O)CC,10 °C
23,OCC1OC(OCC2OC(O)(CO)C(O)C2O)C(O)C(O)C1O (stereo not drawn),125 to 128 °C

row,Compound,melting point
1,O=C(O)CC[C@H]1CC[C@H](CCC(=O)O)C1=O,121 °C
2,N#Cc1ccc2c(c1)[N+]([O-])=C(c1ccc(C3=[N+]([O-])c4cc(C#N)ccc4C3=O)cc1)C2=O,360 °C
3,CCCCC=CCCCCCCCCOC(C)=O,1.3 °C
4,ClC=CCCl (mixture of isomers),-50 °C
5,CN[C@H](CC(=O)O)C(=O)O,187 to 192 °C
6,CCN(CC)C(=S)Cl,45 to 50 °C
7,O=Cc1ccc2c(c1[N+](=O)[O-])C(=O)c1c(Cl)c(Cl)c(Cl)c(Cl)c1C2=O,265 to 268 °C
8,Cc1cc(C)c(Cc2cnc(NC3=NCCN3)s2)c(C)c1,192 to 194 °C
9,COc1cc([N+](=O)[O-])c(Cl)cc1NC(C)=O,185 °C
10,O=C(NCCc1c[nH]cn1)C1=NC=NC1,176 °C
11,N#Cc1cc(F)c(N)cc1F,95 to 97 °C
12,COC(=O)[C@@H]1C[C@@H]2CCCN2[C@@]12C(=O)c1cccc3cccc2c13,145 °C
13,CC(C(=O)Nc1ccc(F)c(F)c1F)(C(F)(F)F)C(F)(F)F,44 °C
14,O=[N+]([O-])c1cc([N+](=O)[O-])c(C2CO2)cc1C1CO1 (stereo not drawn),153 to 154 °C
15,O=S(=O)(Cl)c1ccc(Br)cc1C(F)(F)F,62 to 63 °C
16,ClC1=C(Cl)C2(Cl)C3C(Cl)OC(Cl)C3C1(Cl)C2(Cl)Cl (stereo not drawn),121 °C
17,CCCCOCCOCCOC(C)=O,-32 °C
18,OCc1cc2cc(Br)ccc2o1,101 to 103 °C
19,N#Cc1ccc(C=Cc2cccc(C=Cc3ccc(C#N)cc3[N+](=O)[O-])c2)c([N+](=O)[O-])c1,298 °C
20,O=C(Cl)c1cccnc1Cl,40 °C
21,OC(CS)C(O)CS (stereo not drawn),83 °C
22,Cc1cc([N+](=O)[O-])ccc1N=C=S,82 to 84 °C
23,S=C=NC12CC3CC(CC(C3)C1)C2,166 to 168 °C

# Results, then the molecule that gave them:
row,melting point,Compound
1,157 to 161 °C,CC(C)c1ccc(C=CC(=O)O)cc1
2,214 to 216 °C,CC1=C(C(=O)OCc2ccccc2)C(c2ccc(O)c(O)c2)NC(=O)N1 (stereo not drawn)
3,94 to 96 °C,CC(C(=O)NCCO)c1ccc(-c2ccccc2)c(F)c1 (stereo not drawn)
4,92 to 93 °C,O=Cc1ccc(OCc2ccc(Cl)c(Cl)c2)cc1
5,172 °C,Cc1ccc(-c2csc(/C(C#N)=N\Nc3ccc(Cl)cc3)n2)cc1
6,26.5 °C,COc1ccc2ncccc2c1
7,113 °C,CN(C)c1ccc(C(O)(c2ccccc2)c2ccc(N(C)C)cc2)cc1
8,283 to 285 °C,COC(=O)c1c(SC)nc(-c2ccccc2)[nH]c1=O
9,24 to 25 °C,Cc1onc(-c2ccccc2)c1C(=O)Cl
10,46 °C,O=C(c1ccccc1)c1ccccc1Cl
11,67 to 70 °C,COC(=O)c1cc(OCc2ccccc2)cc(OCc2ccccc2)c1
12,75 to 77 °C,C=CCn1c(SC)nc2ccccc2c1=O
13,225 °C,COC(=O)c1ccc(NC(C)=O)c(NC(C)=O)c1
14,97 to 99 °C,NCCSc1cc(C(F)(F)F)nc2ccccc12
15,87 °C,O=C(C(=O)c1ccc2ccccc2c1)c1ccccc1
16,104 to 106 °C,c1ccc(-c2cnc(-c3cccc4ccccc34)o2)cc1
17,-33 °C,CC(C)Oc1ccccc1
18,128 °C,CC(=O)c1ccc(O)cc1C
19,75 to 77 °C,NC(=NO)c1ccccc1
20,212 °C,CC(=O)CC(=O)Nc1ccc(-c2ccc(NC(=O)CC(C)=O)c(C)c2)cc1C

row,melting point,Compound
1,217 to 219 °C,O=C(Nc1ccccc1)OC1CCCCCC1OC(=O)Nc1ccccc1 (stereo not drawn)
2,152 to 153 °C,O=Cc1cc(C(=O)O)ccc1F
3,284 to 286 °C,O=C(O)c1c[nH]c(=O)c(Cl)c1
4,208 to 210 °C,CC1(C)CC(=O)c2cc(-c3ccccc3)n(-c3ccc(F)cc3)c2C1
5,224 to 225 °C,CCOC(=O)c1cnc(N)nc1C
6,67 to 69 °C,N#Cc1c(F)cccc1-n1cccc1
7,86 °C,Cc1cccc2c1C(=O)OC2
8,176 °C,CCOC(=O)C(=O)C=P(c1ccccc1)(c1ccccc1)c1ccccc1
9,206 °C,Clc1ccc(-c2cc3ccccc3[nH]2)cc1
10,170 to 171 °C,CC1=C(C(=O)OCC(C)C)C(c2ccco2)NC(=O)N1 (stereo not drawn)
11,184 °C,O=C(c1cccc([N+](=O)[O-])c1)c1nn(-c2ccccc2)/c(=N\Nc2ccccc2)s1
12,162 to 168 °C,O=Cc1coc2ccc(Cl)cc2c1=O
13,116 to 117 °C,NC(=S)COc1ccccc1Cl
14,216 °C,Nc1cc2ccccc2cc1C(=O)O
15,168 °C,NC(=O)NN=C(O)Cc1ccccc1
16,66 °C,OC12CCCC1c1ccccc12 (stereo not drawn)
17,80 to 85 °C,FC(F)(F)c1ccc(-c2nc(CCl)cs2)cc1
18,186 to 190 °C,Cc1cccc(OCC(=O)O)c1C
19,56.9 °C,CC1(C)CC(=O)[C@]2(C)C=C[C@H]1N(c1ccccc1)O2
20,229 °C,O=C(O)C1c2ccccc2-c2ccccc21

row,melting point,Compound
1,37 °C,CCOC(=O)Cc1ccccc1Br
2,205 °C,N#CC1=C(N)N2C(=C(C#N)C1c1ccccc1)Sc1ccccc12 (stereo not drawn)
3,151 °C,O=C(O)Cc1ccccc1CC(=O)O
4,-50 °C,FC(F)(F)Oc1ccccc1
5,67 °C,CCOc1cccc(C=O)c1O
6,95 °C,CC(=O)C(=CN)Cc1ccccc1
7,170 °C,O=C(O)c1cc(Br)ccc1O
8,67 to 71 °C,CC(C)(C)OC(=O)N1CCN(c2ccccc2CO)CC1
9,126 to 128 °C,CC(=O)Nc1cc(Cl)c(Cl)cc1[N+](=O)[O-]
10,160 °C,CC(C)c1c(C(=O)Nc2ccccc2)c(-c2ccccc2)c(-c2ccc(F)cc2)n1CCC(O)CC(O)CC(=O)O (stereo not drawn)
11,73.5 °C,CCOCOC(=O)c1ccccc1Nc1c(Cl)ccc(C)c1Cl
12,171 to 172 °C,NNC(=S)Nc1ccc(F)cc1
13,247 °C,O=C(O)C=Cc1ccc(F)cc1Cl
14,88 to 89 °C,COC(=O)c1ccc2ncccc2c1
15,79 °C,O=C1C2=C(O)CCCC2Cc2ccccc21 (stereo not drawn)
16,49 to 56 °C,O=C1c2ccccc2C(=O)N1CCCCCCCCBr
17,205 to 208 °C,COc1cc(C(c2c(O)cc(C)oc2=O)c2c(O)cc(C)oc2=O)ccc1O
18,49 to 50 °C,N#Cc1ccccc1CN1CCOCC1
19,127 to 129 °C,CC(=O)Nc1ccc2c(c1)CCCC2=O
